Assays:
[1] = test system: Mouse macrophage cells (RAW264.7); experiment: Prostaglandin E2 (PGE2) production suppressive action test in mouse macrophages; format: cell-based; settings: RAW264.7, LPS 1 μg/mL, 16 hours
Experimental: Mouse macrophage cells (RAW264.7) were cultured using Dulbecco's modified Eagle's medium (DMEM) containing 10% FBS, and then the cells were collected using a cell scraper. The collected cells were diluted with DMEM containing 10% FBS to a concentration of 2.0×10^5 cells/mL, then seeded with 100 μL per well in a 96-well plate, and cultured for 18 hours.
After the culturing was completed, the medium was replaced with a medium containing 500 μmol/L aspirin and cultured for 4 hours in order to acetylate and inactivate the already existing COX-1 and the small amount of COX-2 expressed. After that, the cells were washed three times with PBS(−) buffer solution, 100 μL of the test sample (Sample 1, see Table 29 below for final concentration) dissolved in DMEM containing DMSO at a final concentration of 0.5% and 10% FBS was added to each well, then 100 μL of lipopolysaccharide (LPS) (available from DIFCO, E. coli 0111; B4) dissolved at a final concentration of 1 μg/mL in DMEM containing 10% FBS, and the cells were cultured for 16 hours. As a control, culturing was performed in the same manner using DMEM containing DMSO at a final concentration of 0.5% and 10% FBS to which no sample was added. After the culturing was completed, the amount of prostaglandin E2 in the culture supernatant of each well was determined using PGE2 EIA Kit (available from Cayman Chemical). From the obtained results, the PGE2 production suppression rate (%) was calculated using the following equation.
Terms in the equation represent the following respective ones. • A: PGE2 amount with test sample addition and with LPS stimulation • B: PGE2 amount without sample addition and with LPS stimulation • C: PGE2 amount without sample addition and without LPS stimulation

[2] = test system: Normal human neonatal epidermal keratinocytes (NHEK); experiment: Epidermal keratinocyte proliferation promotive action test (MTT); format: cell-based; settings: 3 days, A/B×100 vs no sample
Experimental: Normal human neonatal epidermal keratinocytes (NHEK) were cultured using normal human epidermal keratinocyte growth medium (KGM), and then the cells were collected by a trypsin treatment. The collected cells were diluted with KGM to a cell density of 3.0×10^4 cells/mL, then seeded with 100 μL per well on a collagen-coated 96-well plate, and cultured overnight. After the culturing was completed, 100 μL of the test sample (Sample 1, see Table 12 below for the final concentration) dissolved in KGM was added to each well, and culturing was performed for 3 days. As a control, culturing was performed in the same manner using KGM to which no sample was added.
The epidermal keratinocyte proliferation promotive action was measured using the MTT assay method. After culturing for 3 days, the medium was removed, and 100 μL of MTT dissolved at a final concentration of 0.4 mg/mL in PBS(−) buffer solution was added to each well. […] After extraction, the absorbance at a wavelength of 570 nm was measured. At the same time, the absorbance at a wavelength of 650 nm was measured as turbidity, and the difference between the two was determined as the production amount of blue formazan. From the obtained results, the epidermal keratinocyte proliferation promotion rate (%) was calculated using the following equation. […]

CLDN4 mRNA = experiment: Claudin-4 (CLDN4) mRNA expression promotive action test; format: cell-based, human; settings: 100 μmol/L; NHEK, 24 hours, corrected with GAPDH
Experimental: Normal human neonatal epidermal keratinocytes (NHEK) were precultured using normal human epidermal keratinocyte growth medium (KGM), and the cells were collected by a trypsin treatment. The collected cells were diluted with KGM to a cell density of 15×10^4 cells/mL, then seeded with 2 mL portions in a 6-well plate (30×10^4 cells/well), and cultured overnight under conditions of 37° C. and 5% CO2. After culturing, the medium was replaced with normal human epidermal keratinocyte basal medium (KBM, the above KGM without addition of growth additives (hEGF, BPE, insulin, antibacterial agents, hydrocortisone)), and culturing was further performed for 24 hours.
After culturing for 24 hours, the medium was removed, and 2 mL of the test sample (Sample 1, see Table 20 below for final concentrations) dissolved in KBM was added to each well, and culturing was performed under conditions of 37° C. and 5% CO2 for 24 hours. As a control, culturing was performed in the same manner using KBM to which no sample was added. After culturing, the medium was removed, total RNA was extracted using ISOGEN II (available from NIPPON GENE CO., LTD.), each RNA amount was measured using a spectrophotometer, and the total RNA was prepared so as to be 150 ng/μL.
For CLDN4 and GAPDH as an internal standard, the expression levels of mRNA were measured using the above total RNA as a template. […]

For `O=C(O)CCc1ccc(O)c(O)c1` [Sample 1, 3,4-Dihydroxyhydrocinnamic acid], the “PGE2 production suppression rate” value ([1]; 31.25 μmol/L) was 17.9%, the “PGE2 production suppression rate” value ([1]; 125 μmol/L) was 17.7% and the “PGE2 production suppression rate” value ([1]; 500 μmol/L) was 41.3%. For the same compound, the “Epidermal keratinocyte proliferation promotion rate” value ([2]; 25 μmol/L) was 138.3%, the “Epidermal keratinocyte proliferation promotion rate” value ([2]; 100 μmol/L) was 152.1% and the “CLDN4 mRNA expression promotion rate” value (CLDN4 mRNA) was 489.7%.

From patent US20240252456A1, “ORAL COMPOSITION, SKIN COSMETIC AND HAIR COSMETIC” (MARUZEN PHARMACEUTICALS CO., LTD., priority 2021, published 2024)
